In patent US20230184744A1, “INTERTUMORAL HOMOGENEITY DETERMINED BY MiCK ASSAY” (Pierian Biosciences, LLC, priority 2014, published 2023):
Read-outs that look alike come from different tables or passages of the source.

Legend:
[1] = system: Probable mesothelioma (pleural effusion); test: MiCK assay, drug-induced apoptosis, Table 3 tumor A2; type: cell-based, human
Method: (§1) Data were obtained optically using Mie light-scattering.
When the optimal cell concentration is reached, put the cells in the plate and incubate overnight in the incubating chamber of the incubator (37° C.).

[2] = system: NSCLC, bilateral well-differentiated adenocarcinoma (site 1A); test: MiCK assay, drug-induced apoptosis, Table 3 tumor B1; type: cell-based, human
Source text: as §1
(§2) Do a test well. […] Look at the well under the inverted microscope. […] Repeat until optimal cell concentration is found. Plate the cells into the wells.

[3] = system: NSCLC, bilateral well-differentiated adenocarcinoma (site 1B); test: MiCK assay, drug-induced apoptosis, Table 3 tumor B2; type: cell-based, human
Source text: as §1, §2

[4] = system: NSCLC, multi-focal, recurrent adenocarcinoma (site A); test: MiCK assay, drug-induced apoptosis, Table 3 tumor C1; type: cell-based, human
Source text: as §1, §2

[5] = system: NSCLC, multi-focal, recurrent adenocarcinoma (site B); test: MiCK assay, drug-induced apoptosis, Table 3 tumor C2; type: cell-based, human
Source text: as §1, §2

[6] = system: NSCLC, multi-focal, recurrent adenocarcinoma (right lung); test: MiCK assay, drug-induced apoptosis, Table 3 tumor D1; type: cell-based, human
Source text: as §1, §2

[7] = system: NSCLC, multi-focal, recurrent adenocarcinoma (lymph node); test: MiCK assay, drug-induced apoptosis, Table 3 tumor D2; type: cell-based, human
Source text: as §1, §2

[8] = system: NSCLC, multi-focal adenocarcinoma (site A); test: MiCK assay, drug-induced apoptosis, Table 3 tumor E1; type: cell-based, human
Source text: as §1, §2

[9] = system: NSCLC, multi-focal adenocarcinoma (site B); test: MiCK assay, drug-induced apoptosis, Table 3 tumor E2; type: cell-based, human
Source text: as §1, §2

[10] = system: Lung adenocarcinoma (pleural effusion); test: MiCK assay, drug-induced apoptosis, Table 4 tumor B1; type: cell-based, human
Source text: as §1
(§3) Patients: Three patients were included in this study. […] Patient A was diagnosed with pancreatic islet cell cancer; sample 1 was collected from lymph node and sample 2 was collected from the primary tumor. Patient B was diagnosed with lung cancer NSCLC adenocarcinoma; sample 1 was collected from pleural effusion and sample 2 was collected from solid tumor. […] Ages of the patients ranged from 51-79 years old with an average age of 65 years. One patient was […] and two were female.

[11] = system: Pancreatic islet cell cancer (lymph node); test: MiCK assay, drug-induced apoptosis, Table 4 tumor A1
Method: (§4) After overnight incubation, chemotherapy drugs were added to the wells of the 96-well plate in 5 μL aliquots or to the wells of a 384-well plate in 2.5 μL aliquots using an automated pipettor. The number of drugs or drug combinations and the number of concentrations tested depended on the number of viable malignant cells that were isolated from the tumor specimen. The drug concentrations, determined by molarity, were those indicated by the manufacturer as the desired blood level concentration plus or minus one serial dilution if enough cells were available.
(§5) Following drug addition, the plate was incubated for 30 min. at 37° C. in a 5% carbon dioxide humidified atmosphere incubator. Each well was then overlayed with sterile mineral oil, and the plate was placed into the incubator chamber of a microplate spectrophotometric reader. The optical density at 600 nanometers was read and recorded every 5 minutes over a period of 48 hours.
(§6) Patients: Three patients were included in this study. Two tumor samples from different tumor sites were collected from each patient. Both samples from each patient were collected on the same day.

[12] = system: Pancreatic islet cell cancer (primary tumor); test: MiCK assay, drug-induced apoptosis, Table 4 tumor A2; settings: 48 hours with drug
Method: as §4
(§7) Following drug addition, the plate was incubated for 30 min. at 37° C. in a 5% carbon dioxide humidified atmosphere incubator. Each well was then overlayed with sterile mineral oil, and the plate was placed into the incubator chamber of a microplate spectrophotometric reader. The optical density at 600 nanometers was read and recorded every 5 minutes over a period of 48 hours. Optical density increases, which correlates with apoptosis, were converted to kinetic units (KU) of apoptosis by a proprietary software ProApo with a formula described in the Kravtsov reference incorporated by reference (i.e. Kravtsov V. et al. “Use of the Microculture Kinetic Assay of apoptosis to determine chemosensitivities of leukemias.” Blood 1998; 92:968-980).
(§8) Purified tumor cells were cultured for 48 hours with individual drugs, and drug-induced apoptosis was measured using the MiCK assay as described in Example 1. Data were obtained optically using Mie light-scattering.

[13] = system: Lung small cell carcinoma (site A); test: MiCK assay, drug-induced apoptosis, Table 4 tumor C1
Method: as §4, §5, §6

[14] = system: Lung adenocarcinoma (site B); test: MiCK assay, drug-induced apoptosis, Table 4 tumor C2
Method: as §4, §7, §8

[15] = system: Lung adenocarcinoma (solid tumor); test: MiCK assay, drug-induced apoptosis, Table 4 tumor B2; type: cell-based, human
Source text: as §1, §3

[16] = Table 3 tumor A2: Probable mesothelioma (pleural effusion), 48 hours with drug
[17] = Table 3 tumor B1: NSCLC, bilateral well-differentiated adenocarcinoma (site 1A), 48 hours with drug
[18] = Table 3 tumor B2: NSCLC, bilateral well-differentiated adenocarcinoma (site 1B), 48 hours with drug
[19] = Table 3 tumor C1: NSCLC, multi-focal, recurrent adenocarcinoma (site A), 48 hours with drug
[20] = Table 3 tumor C2: NSCLC, multi-focal, recurrent adenocarcinoma (site B), 48 hours with drug
[21] = Table 3 tumor D1: NSCLC, multi-focal, recurrent adenocarcinoma (right lung), 48 hours with drug
[22] = Table 3 tumor D2: NSCLC, multi-focal, recurrent adenocarcinoma (lymph node), 48 hours with drug
[23] = Table 3 tumor E1: NSCLC, multi-focal adenocarcinoma (site A), 48 hours with drug
[24] = Table 3 tumor E2: NSCLC, multi-focal adenocarcinoma (site B), 48 hours with drug
[25] = Table 4 tumor B1: Lung adenocarcinoma (pleural effusion), 48 hours with drug
[26] = Table 4 tumor A1: Pancreatic islet cell cancer (lymph node), 48 hours with drug
[27] = Table 4 tumor C1: Lung small cell carcinoma (site A), 48 hours with drug
[28] = Table 4 tumor C2: Lung adenocarcinoma (site B), 48 hours with drug
[29] = Table 4 tumor B2: Lung adenocarcinoma (solid tumor), 48 hours with drug

Row | SMILES | kinetic units (KU) of apoptosis [1, 16] [KU] | kinetic units (KU) of apoptosis [2, 17] [KU] | kinetic units (KU) of apoptosis [3, 18] [KU] | kinetic units (KU) of apoptosis [4, 19] [KU] | kinetic units (KU) of apoptosis [5, 20] [KU] | kinetic units (KU) of apoptosis [6, 21] [KU] | kinetic units (KU) of apoptosis [7, 22] [KU] | kinetic units (KU) of apoptosis [8, 23] [KU] | kinetic units (KU) of apoptosis [9, 24] [KU] | kinetic units (KU) of apoptosis [10, 25] [KU] | kinetic units (KU) of apoptosis [11, 26] [KU] | kinetic units (KU) of apoptosis [12] [KU] | kinetic units (KU) of apoptosis [13, 27] [KU] | kinetic units (KU) of apoptosis [14, 28] [KU] | kinetic units (KU) of apoptosis [15, 29] [KU] | also measured
1 | CCc1c2c(nc3ccc(OC(=O)N4CCC(N5CCCCC5)CC4)cc13)-c1cc3c(c(=O)n1C2)COC(=O)[C@]3(O)CC [Irinotecan] | 1.30 | 1.60 | 1.50 | 0.40 | 0.30 | 0.40 | 0.90 | 0.60 | 0.10 | 0.60 | 1.50 | 1.16 | 1.40 | 2.10 |  | 
2 | O=P1(N(CCCl)CCCl)NCCCO1 (centres unmarked) [4HC (Cytoxan), Cytoxan] |  |  |  |  |  |  |  |  |  |  |  |  |  |  |  | kinetic units (KU) of apoptosis [1]: 3.10 KU; kinetic units (KU) of apoptosis [2]: 1.10 KU; kinetic units (KU) of apoptosis [3]: 1.20 KU; kinetic units (KU) of apoptosis [4]: 0.60 KU; kinetic units (KU) of apoptosis [5]: 0.00 KU; kinetic units (KU) of apoptosis [6]: 1.20 KU; kinetic units (KU) of apoptosis [7]: 1.20 KU; kinetic units (KU) of apoptosis [8]: 0.50 KU; kinetic units (KU) of apoptosis [9]: 0.30 KU; kinetic units (KU) of apoptosis [10]: 1.20 KU; kinetic units (KU) of apoptosis [15]: 2.40 KU; kinetic units (KU) of apoptosis [11]: 3.00 KU; kinetic units (KU) of apoptosis [13]: 1.80 KU; kinetic units (KU) of apoptosis [14]: 2.40 KU
3 | Nc1ccn([C@@H]2O[C@H](CO)[C@@H](O)C2(F)F)c(=O)n1 [Gemcitabine] | 0.70 | 1.20 | 1.10 | 0.00 | 0.70 | 0.10 | 0.90 | 0.30 | 0.50 | 1.10 | 1.08 |  | 2.20 | 1.30 | 3.20 | 
4 | N.N.[Cl][Pt][Cl] [Cisplatin] | 2.80 | 1.50 | 2.10 | 0.00 | 2.10 | 1.00 | 1.00 | 0.80 | 0.50 | 2.20 | 1.31 | 1.75 | 6.40 | 5.40 | 2.20 | 
5 | COc1cccc2c1C(=O)c1c(O)c3c(c(O)c1C2=O)C[C@@](O)(C(=O)CO)C[C@@H]3O[C@H]1C[C@H](N)[C@@H](O)[C@H](C)O1 [Epirubicin] | 3.80 | 0.90 | 1.20 |  |  | 1.40 |  |  |  | 2.70 | 1.61 |  | 8.70 | 3.20 | 3.50 | 
6 | CCC1=C[C@@H]2CN(C1)Cc1c([nH]c3ccccc13)[C@@](C(=O)OC)(c1cc3c(cc1OC)N(C)[C@H]1[C@@](O)(C(=O)OC)[C@H](OC(C)=O)[C@]4(CC)C=CCN5CC[C@]31[C@@H]54)C2 [Vinorelbine] | 2.10 | 1.20 | 1.70 | 0.20 | 0.00 | 0.40 | 1.00 | 0.40 | 0.00 | 3.90 | 1.18 |  | 3.50 | 2.50 | 2.70 | 
7 | COc1cccc2c1C(=O)c1c(O)c3c(c(O)c1C2=O)C[C@@](O)(C(=O)CO)C[C@@H]3O[C@H]1C[C@H](N)[C@H](O)[C@H](C)O1 [Doxorubicin] | 3.80 | 1.70 | 0.90 | 0.80 | 1.50 | 1.50 | 1.40 | 1.60 | 1.50 | 3.50 | 1.27 | 2.06 | 1.60 | 0.90 | 3.50 | 
8 | CN(Cc1cnc2nc(N)nc(N)c2n1)c1ccc(C(=O)N[C@@H](CCC(=O)O)C(=O)O)cc1 [Methotrexate] | 0.50 | 1.00 |  |  |  |  |  |  |  | 1.40 | 0.66 |  | 1.30 | 0.60 | 1.30 | 
9 | CC[C@]1(O)C[C@H]2CN(CCc3c([nH]c4ccccc34)[C@@](C(=O)OC)(c3cc4c(cc3OC)N(C=O)[C@H]3[C@@](O)(C(=O)OC)[C@H](OC(C)=O)[C@]5(CC)C=CCN6CC[C@]43[C@@H]65)C2)C1 [Vincristine] | 2.80 | 1.30 | 1.50 | 0.00 | 0.40 | 0.40 | 0.90 | 0.10 | 0.10 | 0.90 | 0.82 |  | 1.00 | 1.60 |  | 
10 | O=C1[O][Pt]2([NH][C@@H]3CCCC[C@H]3[NH]2)[O]C1=O [Oxaliplatin] |  |  |  |  |  |  |  |  |  | 3.00 | 1.08 |  | 4.40 | 2.50 | 3.10 | 
11 | COc1cc([C@@H]2c3cc4c(cc3[C@@H](O[C@@H]3O[C@@H]5CO[C@@H](C)O[C@H]5[C@H](O)[C@H]3O)[C@H]3COC(=O)[C@H]23)OCO4)cc(OC)c1O [Etoposide] | 1.20 | 1.10 | 1.20 | 0.80 |  | 1.60 | 0.90 | 0.40 |  | 2.30 | 1.08 | 0.00 | 4.60 |  |  | 
12 | CC[C@@]1(O)C(=O)OCc2c1cc1n(c2=O)Cc2cc3c(CN(C)C)c(O)ccc3nc2-1 [Topotecan] | 3.60 | 1.70 | 0.80 | 0.50 | 0.00 | 0.40 | 1.00 | 0.70 | 0.30 | 1.30 |  |  | 9.30 | 4.10 |  | 
